{"source": "paper PMC4801149", "about": "(Drug Design, Development and Therapy, 2016)", "key": {"BGC823 cells [1]": {"tested_on": "BGC823 cells", "experiment": "Western blot of apoptosis and cell cycle proteins", "type": "cell-based, Human", "settings": "P<0.05"}, "BGC823 cells [2]": {"tested_on": "BGC823 cells", "experiment": "Apoptosis by flow cytometry", "type": "cell-based, Human", "settings": "compared to control, dose- and time-dependent, P<0.05"}, "[3]": {"tested_on": "RNA polymerase II CTD serine 5 (P-Ser5), CDK7 phosphorylation site", "experiment": "Immunoblotting of RNA polymerase II CTD Ser5 phosphorylation", "type": "cell-based, Human", "settings": "BGC823 whole cell lysates, 4 hours"}, "BGC823 cells [4]": {"tested_on": "BGC823 cells", "experiment": "Transwell cell migration assay", "type": "cell-based, Human", "settings": "24 hours, dose-dependent, P<0.05"}, "other CDKs": {"biological_target": "other CDKs", "experiment": "Kinase assay in vitro, other CDKs overall", "type": "biochemical", "settings": "read-out: IC50 values for inhibition of other CDKs; CDKs other than CDK7"}, "BGC823 cells [5]": {"tested_on": "BGC823 cells", "experiment": "Matrigel-coated transwell invasion assay", "type": "cell-based, Human", "settings": "24 hours, matrigel-coated transwells, dose-dependent, P<0.05"}, "[6]": {"settings": "cited from earlier work"}, "BGC823 cells [7]": {"tested_on": "BGC823 cells", "experiment": "Cell cycle distribution by flow cytometry", "type": "cell-based, Human"}}, "note": "Read-outs that look alike come from different tables or passages of the source."}
{"smiles": "CC(C)c1cnn2c(NCc3ccccc3)cc(NCCCCCCN)nc12", "note": "[BS-181]", "values": [{"measurement": "XIAP expression", "setting": "BGC823 cells [1]", "result": "significant reduction"}, {"measurement": "cyclin D1 expression", "setting": "BGC823 cells [1]", "result": "significant reduction"}, {"measurement": "Bax expression", "setting": "BGC823 cells [1]; compared to control", "result": "significantly increased"}, {"measurement": "Bcl-2 level", "setting": "BGC823 cells [1]; compared to control", "result": "reduced"}, {"measurement": "caspase-3 expression", "setting": "BGC823 cells [1]; compared to control", "result": "significantly increased"}, {"measurement": "apoptotic cells", "setting": "BGC823 cells [2]", "result": "Significant increases"}, {"measurement": "mice body weights, difference between groups", "setting": "BGC823 xenograft; 14-day observation, 10 or 20 mg/kg/d ip", "result": "no significant difference"}, {"measurement": "mice died in additional 30-day survival observation", "setting": "BGC823 xenograft; BS-181 10 mg/kg/d ip for 14 days, six of ten", "result": 60, "unit": "%"}, {"measurement": "mice died in additional 30-day survival observation", "setting": "BGC823 xenograft; BS-181 20 mg/kg/d ip for 14 days, three of ten", "result": 30, "unit": "%"}, {"measurement": "toxicity", "setting": "BGC823 xenograft; daily dose of 10 mg/kg or 20 mg/kg ip, 14 days", "result": "no apparent toxicity"}, {"measurement": "tumor growth", "setting": "BGC823 xenograft; ip twice daily, 10 or 20 mg/kg/d, 14 days, dose-dependent, compared to control, P<0.05", "result": "significantly inhibited"}, {"measurement": "phosphorylation of the RNA polymerase II CTD at serine 5 (P-Ser5)", "setting": "[3]", "result": "inhibited"}, {"measurement": "cell migration ability", "setting": "BGC823 cells [4]", "result": "significantly inhibited"}, {"measurement": "IC50", "setting": "other CDKs", "result": "> 1000", "unit": "nM"}, {"measurement": "cell invasion ability", "setting": "BGC823 cells [5]", "result": "significantly inhibited"}, {"measurement": "tolerability", "setting": "[6]; dose of 10 mg/kg/d or 20 mg/kg/d, BALB/c-nu mice", "result": "well-tolerated"}, {"measurement": "maximum tolerated single dose", "setting": "[6]; given intraperitoneally", "result": 30, "unit": "mg/kg/day"}, {"measurement": "cell population in S and G2/M phases", "setting": "BGC823 cells [7]", "result": "reduction"}, {"measurement": "cells in G0/G1", "setting": "BGC823 cells [7]", "result": "increase"}]}
{"smiles": "CC[C@H](CO)Nc1nc(NCc2ccccc2)c2ncn(C(C)C)c2n1", "note": "[Roscovitine, roscovitine]", "values": [{"measurement": "mice died in additional 30-day survival observation", "setting": "BGC823 xenograft; roscovitine 20 mg/kg/d for 14 days, five of ten", "result": 50, "unit": "%"}]}
